Experiments:
Human σ1 receptor = target: T1, Human σ1 receptor (Homo sapiens, UniProt Q99720); experiment: Human σ1 receptor radioligand assay ([3H](+)-pentazocine binding, transfected HEK-293 membranes); conditions: binding to σ1 receptor expressed as Ki; + also covers inhibition between 1% and 50%; read-out: σ-1 binding
T1 construct: expressed in transfected cells; host or cells: HEK-293
Outline: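 Membranes (7 μg) were incubated with 5 nM [3H](+)-pentazocine in 50 mM Tris-HCl pH 8 for 120 min at 37° C. Non-specific binding was defined with 10 μM haloperidol. Values are % inhibition at 1 or 10 μM or Ki from five concentrations, read by filtration and scintillation counting.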

[1] = target: Human α2δ-1 subunit of Cav2.2 calcium channel (Homo sapiens, UniProt P54289); experiment: Human α2δ-1 subunit of Cav2.2 calcium channel assay ([3H]-gabapentin binding); conditions: binding to the α2δ-1 subunit of voltage-gated calcium channels expressed as Ki; + also covers inhibition between 1% and 50%
Human α2δ-1 subunit of Cav2.2 calcium channel, sequence (P54289 25-1103): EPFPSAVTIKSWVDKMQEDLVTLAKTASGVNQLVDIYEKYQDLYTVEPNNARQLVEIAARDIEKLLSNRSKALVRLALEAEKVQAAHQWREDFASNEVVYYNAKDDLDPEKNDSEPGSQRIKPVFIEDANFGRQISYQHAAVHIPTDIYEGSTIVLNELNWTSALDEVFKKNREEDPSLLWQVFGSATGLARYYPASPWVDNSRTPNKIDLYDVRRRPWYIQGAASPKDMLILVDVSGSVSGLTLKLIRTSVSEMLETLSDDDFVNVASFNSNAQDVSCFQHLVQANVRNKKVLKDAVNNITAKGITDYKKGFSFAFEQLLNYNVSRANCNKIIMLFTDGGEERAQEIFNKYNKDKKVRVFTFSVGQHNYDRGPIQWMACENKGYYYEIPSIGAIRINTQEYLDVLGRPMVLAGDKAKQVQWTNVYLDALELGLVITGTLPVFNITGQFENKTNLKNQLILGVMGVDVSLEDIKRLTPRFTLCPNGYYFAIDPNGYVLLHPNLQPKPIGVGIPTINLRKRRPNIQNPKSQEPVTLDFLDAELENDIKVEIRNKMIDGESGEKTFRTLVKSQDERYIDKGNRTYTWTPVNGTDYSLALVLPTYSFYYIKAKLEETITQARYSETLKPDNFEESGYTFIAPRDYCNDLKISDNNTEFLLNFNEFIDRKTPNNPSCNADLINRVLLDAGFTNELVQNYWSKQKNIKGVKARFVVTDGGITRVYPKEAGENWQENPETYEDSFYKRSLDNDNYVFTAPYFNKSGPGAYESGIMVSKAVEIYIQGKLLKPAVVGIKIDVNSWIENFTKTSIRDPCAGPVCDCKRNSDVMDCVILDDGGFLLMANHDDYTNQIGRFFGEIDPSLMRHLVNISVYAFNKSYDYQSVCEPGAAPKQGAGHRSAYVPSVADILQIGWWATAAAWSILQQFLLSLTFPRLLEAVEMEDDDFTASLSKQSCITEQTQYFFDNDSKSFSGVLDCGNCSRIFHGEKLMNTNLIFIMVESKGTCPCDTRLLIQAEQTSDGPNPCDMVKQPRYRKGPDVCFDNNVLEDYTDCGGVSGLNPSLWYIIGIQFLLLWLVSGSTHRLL
Outline: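 Membranes enriched in human α2δ-1 incubated with 15 nM [3H]-gabapentin in 10 mM Hepes-KOH pH 7.4, 60 min at 27 °C; nonspecific binding defined with 10 μM pregabalin. Filtration and scintillation counting; % inhibition at 1 or 10 μM, or Ki from five concentrations.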

T1 sequence (Q99720 whole entry): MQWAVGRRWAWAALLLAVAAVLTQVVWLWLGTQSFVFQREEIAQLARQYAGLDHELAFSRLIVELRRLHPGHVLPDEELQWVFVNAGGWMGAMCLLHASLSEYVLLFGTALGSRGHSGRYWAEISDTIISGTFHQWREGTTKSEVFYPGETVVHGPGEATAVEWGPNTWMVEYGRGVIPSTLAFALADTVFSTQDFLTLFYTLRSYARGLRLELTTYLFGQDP

| Ki (Human σ1 receptor) [µM] | Ki [1] [µM] | SMILES |
| --- | --- | --- |
| > 1 | > 5 | Cc1cnc2c(Br)cnn2c1C1CCCN(Cc2ccccc2)C1 (stereo not drawn) [Example 7, 7-(1-Benzylpiperidin-3-yl)-3-bromo-6-methylpyrazolo[1,5-a]pyrimidine] |
| > 1 | > 5 | Cc1nn2c(C3CCCN(Cc4ccccc4)C3)ccnc2c1CO (stereo not drawn) [Example 95, (7-(1-Benzylpiperidin-3-yl)-2-methylpyrazolo[1,5-a]pyrimidin-3-yl)methanol] |
| < 0.5 | 0.5 to 5 | Cc1nn2c([C@@H]3CCCN(Cc4ccc(Cl)cc4)C3)ccnc2c1CN[C@@H](C)c1ccccc1 [Example 197, (S)—N-((7-((R)-1-(4-chlorobenzyl)piperidin-3-yl)-2-methylpyrazolo[1,5-a]pyrimidin-3-yl)methyl)-1-phenylethan-1-amine] |
| < 0.5 | 0.5 to 5 | Brc1cnn2c(C3CCCN(Cc4ccccc4)C3)ccnc12 (stereo not drawn) [Example 5, 7-(1-Benzylpiperidin-3-yl)-3-bromopyrazolo[1,5-a]pyrimidine] |
| > 1 | 0.5 to 5 | Cc1nn2c(C3CCCN(Cc4cccc(Cl)c4)C3)ccnc2c1-c1ccncc1 (stereo not drawn) [Example 122, 7-(1-(3-Chlorobenzyl)piperidin-3-yl)-2-methyl-3-(pyridin-4-yl)pyrazolo[1,5-a]pyrimidine] |
| > 1 | > 5 | Cc1nn2c(C3CCCN(Cc4ccc(Cl)cc4)C3)ccnc2c1-c1cnc(N)nc1 (stereo not drawn) [Example 131, 5-(7-(1-(4-Chlorobenzyl)piperidin-3-yl)-2-methylpyrazolo[1,5-a]pyrimidin-3-yl)pyrimidin-2-amine] |
| > 1 | > 5 | CCOc1cc(-c2c(C)nn3c(C4CCCN(Cc5ccc(Cl)cc5)C4)ccnc23)ccn1 (stereo not drawn) [Example 136, 7-(1-(4-Chlorobenzyl)piperidin-3-yl)-3-(2-ethoxypyridin-4-yl)-2-methylpyrazolo[1,5-a]pyrimidine] |
| > 1 | 0.5 to 5 | COc1ncccc1-c1cnn2c(C3CCCN(Cc4ccccc4)C3)ccnc12 (stereo not drawn) [Example 40, 7-(1-Benzylpiperidin-3-yl)-3-(2-methoxypyridin-3-yl)pyrazolo[1,5-a]pyrimidine] |
| < 0.5 | < 0.5 | Cc1cnc2c(CNCC3CCOCC3)c(C)nn2c1C1CCCN(Cc2ccc(Cl)cc2)C1 (stereo not drawn) [Example 237, 1-(7-(1-(4-Chlorobenzyl)piperidin-3-yl)-2,6-dimethylpyrazolo[1,5-a]pyrimidin-3-yl)-N-((tetrahydro-2H-pyran-4-yl)methyl)methanamine] |
| > 1 | 0.5 to 5 | Cc1nn2c(C3CCCN(Cc4ccccc4)C3)ccnc2c1CN1CCNCC1 (stereo not drawn) [Example 100, 7-(1-Benzylpiperidin-3-yl)-2-methyl-3-(piperazin-1-ylmethyl)pyrazolo[1,5-a]pyrimidine] |
| > 1 | > 5 | COc1ncccc1-c1cc2nccc(C3CCCN(Cc4ccc(Cl)cc4)C3)n2n1 (stereo not drawn) [Example 114, 7-(1-(4-Chlorobenzyl)piperidin-3-yl)-2-(2-methoxypyridin-3-yl)pyrazolo[1,5-a]pyrimidine] |
| > 1 | 0.5 to 5 | Fc1ccc(CN2CCCC(c3ccnc4cc(Br)nn34)C2)cc1F (stereo not drawn) [Example 113, 2-Bromo-7-(1-(3,4-difluorobenzyl)piperidin-3-yl)pyrazolo[1,5-a]pyrimidine] |
| > 1 | 0.5 to 5 | Cc1cnc2c(-c3ccncc3)c(C)nn2c1C1CCCN(Cc2ccccc2)C1 (stereo not drawn) [Example 58, 7-(1-Benzylpiperidin-3-yl)-2,6-dimethyl-3-(pyridin-4-yl)pyrazolo[1,5-a]pyrimidine] |
| > 1 | > 5 | CCN1CCCC(c2ccnc3c(-c4ccncc4)c(C)nn23)C1 (stereo not drawn) [Example 69, 7-(1-Ethylpiperidin-3-yl)-2-methyl-3-(pyridin-4-yl)pyrazolo[1,5-a]pyrimidine] |
| < 0.5 | 0.5 to 5 | Cc1nn2c(C3CCCN(Cc4ccc(Cl)cc4)C3)ccnc2c1CNCc1ccc(F)cc1 (stereo not drawn) [Example 146, 1-(7-(1-(4-Chlorobenzyl)piperidin-3-yl)-2-methylpyrazolo[1,5-a]pyrimidin-3-yl)-N-(4-fluorobenzyl)methanamine] |
| < 0.5 | > 5 | Cc1nn2c([C@@H]3CCCN(Cc4ccc(Cl)cc4)C3)ccnc2c1CNC[C@H]1CCOC(C)(C)C1 [Example 222] |
| 0.5 to 1 | 0.5 to 5 | Cc1nn2c(C3CCCN(Cc4ccc(Cl)cc4)C3)ccnc2c1CN (stereo not drawn) [Example 219, (7-(1-(4-Chlorobenzyl)piperidin-3-yl)-2-methylpyrazolo[1,5-a]pyrimidin-3-yl)methanamine] |

| Ki (Human σ1 receptor) [µM] | Ki [1] [µM] | SMILES |
| --- | --- | --- |
| < 0.5 | 0.5 to 5 | CC(=O)N1CCC(CNCc2c(C)nn3c([C@@H]4CCCN(Cc5ccc(Cl)cc5)C4)ccnc23)CC1 [Example 194, (R)-1-(4-((((7-(1-(4-chlorobenzyl)piperidin-3-yl)-2-methylpyrazolo[1,5-a]pyrimidin-3-yl)methyl)amino)methyl)piperidin-1-yl)ethan-1-one] |
| < 0.5 | > 5 | Cc1nn2c([C@H]3CCCN(Cc4cccc(C#N)c4)C3)ccnc2c1CNCC1CCOCC1 [Example 208, (S)-3-((3-(2-Methyl-3-((((tetrahydro-2H-pyran-4-yl)methyl)amino)methyl)pyrazolo[1,5-a]pyrimidin-7-yl)piperidin-1-yl)methyl)benzonitrile] |
| > 1 | 0.5 to 5 | CN[C@H]1CCN(c2cc3nccc([C@@H]4CCCN(Cc5ccccc5)C4)n3n2)C1 [Example 86, (S)-1-(7-((R)-1-Benzylpiperidin-3-yl)pyrazolo[1,5-a]pyrimidin-2-yl)-N-methylpyrrolidin-3-amine] |
| 0.5 to 1 | 0.5 to 5 | Cc1nn2c(C3CCCN(Cc4ccc(Cl)cc4)C3)ccnc2c1CNCC1CCN(C(N)=O)CC1 (stereo not drawn) [Example 218, 4-((((7-(1-(4-Chlorobenzyl)piperidin-3-yl)-2-methylpyrazolo[1,5-a]pyrimidin-3-yl)methyl)amino)methyl)piperidine-1-carboxamide] |
| > 1 | > 5 | CCCN1CCCC(c2ccnc3c(-c4ccncc4)c(C)nn23)C1 (stereo not drawn) [Example 70, 2-Methyl-7-(1-propylpiperidin-3-yl)-3-(pyridin-4-yl)pyrazolo[1,5-a]pyrimidine] |
| > 1 | > 5 | COc1cccc(-c2cc3nccc(C4CCCN(Cc5ccccc5)C4)n3n2)n1 (stereo not drawn) [Example 30, 7-(1-Benzylpiperidin-3-yl)-2-(6-methoxypyridin-2-yl)pyrazolo[1,5-a]pyrimidine] |
| > 1 | 0.5 to 5 | CNCCNc1cc2nccc(C3CCCN(Cc4ccccc4)C3)n2n1 (stereo not drawn) [Example 83, N^1-(7-(1-Benzylpiperidin-3-yl)pyrazolo[1,5-a]pyrimidin-2-yl)-N^2-methylethane-1,2-diamine] |
| > 1 | > 5 | Cc1nn2c(C3CCCN(CC(C)C)C3)ccnc2c1-c1ccncc1 (stereo not drawn) [Example 71, 7-(1-Isobutylpiperidin-3-yl)-2-methyl-3-(pyridin-4-yl)pyrazolo[1,5-a]pyrimidine] |
| > 1 | > 5 | COc1ncccc1-c1cc2nccc(C3CCCN(Cc4ccc(Cl)c(Cl)c4)C3)n2n1 (stereo not drawn) [Example 118, 7-(1-(3,4-Dichlorobenzyl)piperidin-3-yl)-2-(2-methoxypyridin-3-yl)pyrazolo[1,5-a]pyrimidine] |
| < 0.5 | > 5 | Cc1nn2c([C@@H]3CCCN(Cc4ccccc4)C3)ccnc2c1CNCC1CCOCC1 [Example 205, (R)-1-(7-(1-benzylpiperidin-3-yl)-2-methylpyrazolo[1,5-a]pyrimidin-3-yl)-N-((tetrahydro-2H-pyran-4-yl)methyl)methanamine] |
| > 1 | > 5 | COc1ncccc1-c1cc2nccc(C3CCCN(Cc4ccc(F)c(F)c4)C3)n2n1 (stereo not drawn) [Example 119, 7-(1-(3,4-Difluorobenzyl)piperidin-3-yl)-2-(2-methoxypyridin-3-yl)pyrazolo[1,5-a]pyrimidine] |
| > 1 | 0.5 to 5 | N#Cc1cc2nccc(C3CCCN(Cc4ccccc4)C3)n2n1 (stereo not drawn) [Example 91, 7-(1-Benzylpiperidin-3-yl)pyrazolo[1,5-a]pyrimidine-2-carbonitrile] |
| > 1 | 0.5 to 5 | Cc1nn2c(C3CCCN(Cc4ccc(Cl)cc4)C3)ccnc2c1CNCCCN1CCCC1=O (stereo not drawn) [Example 176, 1-(3-(((7-(1-(4-Chlorobenzyl)piperidin-3-yl)-2-methylpyrazolo[1,5-a]pyrimidin-3-yl)methyl)amino)propyl)pyrrolidin-2-one] |
| < 0.5 | 0.5 to 5 | Cc1nn2c(C3CCCN(Cc4ccc(Cl)cc4)C3)ccnc2c1CCN(C)C (stereo not drawn) [Example 236, 2-(7-(1-(4-Chlorobenzyl)piperidin-3-yl)-2-methylpyrazolo[1,5-a]pyrimidin-3-yl)-N,N-dimethylethan-1-amine] |
| < 0.5 | 0.5 to 5 | Cc1nn2c(C3CCCN(Cc4ccc(Cl)cc4)C3)ccnc2c1CNCC1CC1 (stereo not drawn) [Example 157, 1-(7-(1-(4-Chlorobenzyl)piperidin-3-yl)-2-methylpyrazolo[1,5-a]pyrimidin-3-yl)-N-(cyclopropylmethyl)methanamine] |
| < 0.5 | 0.5 to 5 | Cc1nn2c([C@@H]3CCCN(Cc4ccc(Cl)cc4)C3)ccnc2c1CN[C@H](C)C1CCOCC1 (racemic) [Example 224, (+/−)-(R/S)—N-((7-((R/S)-1-(4-Chlorobenzyl)piperidin-3-yl)-2-methylpyrazolo[1,5-a]pyrimidin-3-yl)methyl)-1-(tetrahydro-2H-pyran-4-yl)ethan-1-amine] |

Reference: patent US12617797B2, “Substituted pyrazolo [1,5-a]pyrimidines having multimodal activity against pain” (ESTEVE PHARMACEUTICALS, S.A., priority 2020, dated 2026)
